The results in this text go back to US20240116923A1, “USE OF INDOLE, 6- AND 7-AZAINDOLE DERIVATIVES AS INHIBITORS OF FERROPTOSIS REGULATED CELL DEATH” (Seabelife, priority 2021, published 2024).

In the experiment the test system is Rat dopaminergic neurons. Put plainly: Protective effect after 6-OHDA injury on rat primary dopaminergic neurons survival (TH staining). The experiment is classed as cell-based. Conditions: p<0.0001. On the procedure: As explained in Ding et al., J Neurochem., 2004, (89), administration of 6-Hydroxydopamine (6-OHDA), a neurotoxin, has been widely used to cause the selective degeneration of dopamine (DA) neurons in in vitro and in vivo models. These models are used as Parkinson's disease models, which is characterized by the progressive loss of DA neurons of the substantia nigra.
Rat dopaminergic neurons were cultured as described by Schinelli et al., J Neurochem., 1988, 50(6). The cells were seeded at a density of 40 000 cells/well in 96 well-plates (precoated with poly-D-lysine; Greiner, Ref: 655940, Batch: E20093UL) and were cultured at 37° C. in a humidified air (95%)/CO2 (5%) atmosphere. Half of the medium was changed every 2 days with fresh medium. In these conditions, after 5 days of culture, astrocytes are present in the culture and release growth factor allowing neurons differentiation. In this condition, 2 to 5% of neurons are dopaminergic neurons.
6-OHDA (Sigma, Ref: 162957, Batch MKCK5243) was reconstituted in define culture medium at 40 μM (stock solution). The control medium was prepared in the same conditions. After 7 days of culture, primary mesencephalic neurons were pre-treated for 1 hour with test compounds or reference compound (BDNF, 50 ng/mL) and then intoxicated with 6-OHDA at a final concentration of 20 μM for 2 days incubation in order to induce a neuronal cell death of about 50%+/−5%.
After 2 days of intoxication in presence or absence of test compounds, cells were fixed by a solution of 4% paraformaldehyde (Sigma, ref 6148, Batch: SZBE2390V) for 20 min at room temperature, the control conditions were fixed as well following the same procedure. The cells were then permeabilized and nonspecific sites were blocked with a solution of phosphate buffered saline (PBS; PanBiotech; ref: P04-36500, Batch: 7701020) containing 0.1% of saponin (Sigma; ref: S7900, Batch: BCBL8667V) and 1% FCS for 15 min at room temperature. Cells were incubated with a mouse monoclonal anti-Tyrosine Hydroxylase (TH, 1/10 000, Sigma; ref: T1299, Batch: 014M4835) antibody in a solution of PBS overnight at 4° C. Antibody against TH stained dopaminergic neurons. […] Nuclei of cells were labelled by a fluorescent marker (Hoechst, Sigma; ref: B1155, Batch: 046M4048V) in the same solution. For each condition, 20 pictures per well were taken using InCell Analyzer™ 2200 (GE Healthcare) with 20× magnification. Images of each culture well were taken in same condition. Analysis of cell bodies of TH positive neurons was performed using Developer software (GE healthcare). A total of 6 data per experimental condition were provided.

With `NCCc1cc(O)c(O)cc1O` [Compound 6-OHDA, 6-hydroxydopamine, reference compound], for the setting “6-OHDA 20 μM alone, 2 days”, the “cellular death of dopaminergic neurons” value was found to be 48%.

B1: BDNF: Brain Derived Neurotrophic Factor, reference compound at 50 ng/mL (protein, UniProt P23560 19-247, looked up)
Neurotrophic factor BDNF …: APMKEANIRGQGGLAYPGVRTHGTLESVNGPKAGSRGLTSLADTFEHVIEELLDEDQKVRPNEENNKDADLYTSRVMLSSQVPLEPPLLFLLEEYKNYLDAANMSMRVRRHSDPARRGELSVCDSISEWVTAADKKTAVDMSGGTVTVLEKVPVSKGQLKQYFYETKCNPMGYTKEGCRGIDKRHWNSQCRTTQSYVRALTMDSKKRIGWRFIRIDTSCVCTLTIKRGR
On to B1, for which the “cellular death of dopaminergic neurons after 6-OHDA injury” value (50 ng/mL, 1 h pre-treatment, 6-OHDA 20 μM 2 days (6-OHDA alone 48%)) is listed as 15%.
